Experimental data published in PubChem BioAssay (NCI).
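1) Cells in 96-well plates. 2) Compound, 48 h, 5 concentrations. 3) Linear interpolation between surrounding doses. 4) Unreached endpoint = highest concentration. Abbreviation: GI50, concentration required for 50% inhibition of growth. Definition used: TGI = concentration required for complete inhibition of growth.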

Tests used:
Test in all cases: NCI anticancer screen, dose series, 48 h
SK-MEL-2 melanoma = tested on: SK-MEL-2 melanoma
NCI-H226 lung = tested on: NCI-H226 lung
M14 melanoma = tested on: M14 melanoma
SF-295 CNS = tested on: SF-295 CNS
MOLT-4 leukemia = tested on: MOLT-4 leukemia
A549 NSCLC = tested on: A549 NSCLC
NCI/ADR-RES ovarian = tested on: NCI/ADR-RES ovarian
OVCAR-4 ovarian = tested on: OVCAR-4 ovarian
HOP-92 NSCLC = tested on: HOP-92 NSCLC
SNB-75 CNS = tested on: SNB-75 CNS
LOX IMVI melanoma = tested on: LOX IMVI melanoma
MALME-3M melanoma = tested on: MALME-3M melanoma
CAKI-1 renal = tested on: CAKI-1 renal
CCRF-CEM leukemia = tested on: CCRF-CEM leukemia
SN12C renal = tested on: SN12C renal
MCF7 breast = tested on: MCF7 breast
T-47D breast = tested on: T-47D breast
U251 CNS = tested on: U251 CNS
MDA-MB-435 = tested on: MDA-MB-435
IGROV1 ovarian = tested on: IGROV1 ovarian
NCI-H522 lung = tested on: NCI-H522 lung
SNB-19 CNS = tested on: SNB-19 CNS
SK-MEL-5 melanoma = tested on: SK-MEL-5 melanoma
SR leukemia = tested on: SR leukemia
DU-145 prostate = tested on: DU-145 prostate
SF-268 CNS = tested on: SF-268 CNS
EKVX NSCLC = tested on: EKVX NSCLC
COLO 205 colon = tested on: COLO 205 colon
HT29 colon = tested on: HT29 colon
BT-549 breast = tested on: BT-549 breast
RXF 393 renal = tested on: RXF 393 renal
786-0 renal = tested on: 786-0 renal
HL-60(TB) leukemia = tested on: HL-60(TB) leukemia
ACHN renal = tested on: ACHN renal
HCC-2998 colon = tested on: HCC-2998 colon
RPMI-8226 leukemia = tested on: RPMI-8226 leukemia
NCI-H460 lung = tested on: NCI-H460 lung
HCT-15 colon = tested on: HCT-15 colon
KM12 colon = tested on: KM12 colon
UO-31 renal = tested on: UO-31 renal
OVCAR-8 ovarian = tested on: OVCAR-8 ovarian
HS 578T breast = tested on: HS 578T breast
OVCAR-5 ovarian = tested on: OVCAR-5 ovarian
SW-620 colon = tested on: SW-620 colon
SF-539 CNS = tested on: SF-539 CNS
UACC-257 melanoma = tested on: UACC-257 melanoma
HCT-116 colon = tested on: HCT-116 colon
SK-MEL-28 melanoma = tested on: SK-MEL-28 melanoma
A498 renal = tested on: A498 renal
PC-3 prostate = tested on: PC-3 prostate
HOP-62 NSCLC = tested on: HOP-62 NSCLC
TK-10 renal = tested on: TK-10 renal
K-562 leukemia = tested on: K-562 leukemia
SK-OV-3 ovarian = tested on: SK-OV-3 ovarian
UACC-62 melanoma = tested on: UACC-62 melanoma
MDA-MB-231 breast = tested on: MDA-MB-231 breast
OVCAR-3 ovarian = tested on: OVCAR-3 ovarian
NCI-H23 lung = tested on: NCI-H23 lung

## CC1(C)CC[C@]23CC[C@]4(C)[C@H](CC[C@@H]5[C@@]6(C)CC[C@H](NCO)C(C)(C)[C@@H]6CC[C@]54C)[C@H]2[C@H]1OC3
SK-MEL-2 melanoma
  GI50: 14200 nM
  TGI: 27200 nM
NCI-H226 lung
  GI50: 14900 nM
  TGI: 34000 nM
M14 melanoma
  GI50: 11500 nM
  TGI: 23700 nM
SF-295 CNS
  GI50: 14400 nM
  TGI: 28700 nM
MOLT-4 leukemia
  GI50: 3160 nM
  TGI: 16100 nM
A549 NSCLC
  GI50: 4390 nM
  TGI: 18100 nM
NCI/ADR-RES ovarian
  GI50: 14000 nM
  TGI: 30900 nM
OVCAR-4 ovarian
  GI50: 14300 nM
  TGI: 31000 nM
HOP-92 NSCLC
  GI50: 2820 nM
  TGI: 18300 nM
SNB-75 CNS
  GI50: 16800 nM
  TGI: 33400 nM
LOX IMVI melanoma
  GI50: 1520 nM
  TGI: 2950 nM
MALME-3M melanoma
  GI50: 16000 nM
  TGI: 34300 nM
CAKI-1 renal
  GI50: 10200 nM
  TGI: 23300 nM
CCRF-CEM leukemia
  GI50: 5930 nM
  TGI: > 100000 nM
SN12C renal
  GI50: 12000 nM
  TGI: 30000 nM
MCF7 breast
  GI50: 2250 nM
  TGI: 6400 nM
T-47D breast
  GI50: 7720 nM
  TGI: 28900 nM
U251 CNS
  GI50: 2500 nM
  TGI: 8160 nM
MDA-MB-435
  GI50: 12900 nM
  TGI: 25600 nM
IGROV1 ovarian
  GI50: 7560 nM
  TGI: 22600 nM
NCI-H522 lung
  GI50: 16300 nM
  TGI: 32000 nM
SNB-19 CNS
  GI50: 16700 nM
  TGI: 36600 nM
SK-MEL-5 melanoma
  GI50: 15300 nM
  TGI: 28600 nM
SR leukemia
  GI50: 741 nM
  TGI: 6710 nM
DU-145 prostate
  GI50: 14100 nM
  TGI: 32000 nM
SF-268 CNS
  GI50: 16300 nM
  TGI: 37900 nM
EKVX NSCLC
  GI50: 16900 nM
  TGI: 32500 nM
COLO 205 colon
  GI50: 2060 nM
  TGI: 4180 nM
HT29 colon
  GI50: 5250 nM
  TGI: 17400 nM
BT-549 breast
  GI50: 15600 nM
  TGI: 28900 nM
RXF 393 renal
  GI50: 6160 nM
  TGI: 20400 nM
786-0 renal
  GI50: 3770 nM
  TGI: 15300 nM
HL-60(TB) leukemia
  GI50: 1580 nM
  TGI: 4620 nM
ACHN renal
  GI50: 5010 nM
  TGI: 17100 nM
HCC-2998 colon
  GI50: 1950 nM
  TGI: 4170 nM
RPMI-8226 leukemia
  GI50: 3640 nM
  TGI: 18700 nM
NCI-H460 lung
  GI50: 2240 nM
  TGI: 5030 nM
HCT-15 colon
  GI50: 2900 nM
  TGI: 10900 nM
KM12 colon
  GI50: 17500 nM
  TGI: 31300 nM
UO-31 renal
  GI50: 13300 nM
  TGI: 28100 nM
OVCAR-8 ovarian
  GI50: 3250 nM
  TGI: 11900 nM
HS 578T breast
  GI50: 15300 nM
  TGI: 42000 nM
OVCAR-5 ovarian
  GI50: 11800 nM
  TGI: 24100 nM
SW-620 colon
  GI50: 1700 nM
  TGI: 3700 nM
SF-539 CNS
  GI50: 12300 nM
  TGI: 26500 nM
UACC-257 melanoma
  GI50: 14700 nM
  TGI: 28300 nM
HCT-116 colon
  GI50: 3700 nM
  TGI: 12900 nM
SK-MEL-28 melanoma
  GI50: 15500 nM
  TGI: 28900 nM
A498 renal
  GI50: 14100 nM
  TGI: 27100 nM
PC-3 prostate
  GI50: 10800 nM
  TGI: 31600 nM
HOP-62 NSCLC
  GI50: 15500 nM
  TGI: 35700 nM
TK-10 renal
  GI50: 22600 nM
  TGI: 38000 nM
K-562 leukemia
  GI50: 2350 nM
  TGI: 6900 nM
SK-OV-3 ovarian
  GI50: 15000 nM
  TGI: 31400 nM
UACC-62 melanoma
  GI50: 16900 nM
  TGI: 31500 nM
MDA-MB-231 breast
  GI50: 4000 nM
  TGI: 17400 nM

## CN1CCN(Cc2ccc(NC(=O)c3cncc(C#Cc4cnc5ccc(OCC(F)F)nn45)c3)cc2C(F)(F)F)CC1
SK-MEL-2 melanoma
  GI50: 600 nM
  TGI: 1280 nM
NCI-H226 lung
  GI50: 451 nM
  TGI: 1270 nM
M14 melanoma
  GI50: 167 nM
  TGI: 619 nM
SF-295 CNS
  GI50: 387 nM
  TGI: 1200 nM
MOLT-4 leukemia
  GI50: 299 nM
  TGI: 2790 nM
A549 NSCLC
  GI50: 221 nM
  TGI: 612 nM
NCI/ADR-RES ovarian
  GI50: 1040 nM
  TGI: 5090 nM
OVCAR-4 ovarian
  GI50: 562 nM
  TGI: 1510 nM
HOP-92 NSCLC
  GI50: 101 nM
  TGI: 359 nM
SNB-75 CNS
  GI50: 580 nM
  TGI: 1260 nM
LOX IMVI melanoma
  GI50: 235 nM
  TGI: 838 nM
MALME-3M melanoma
  GI50: 120 nM
  TGI: 485 nM
CAKI-1 renal
  GI50: 473 nM
  TGI: 1390 nM
CCRF-CEM leukemia
  GI50: 192 nM
  TGI: 4310 nM
SN12C renal
  GI50: 500 nM
  TGI: 1170 nM
MCF7 breast
  GI50: 110 nM
  TGI: 649 nM
T-47D breast
  GI50: 419 nM
  TGI: 1170 nM
U251 CNS
  GI50: 646 nM
  TGI: 1340 nM
MDA-MB-435
  GI50: 218 nM
  TGI: 812 nM
IGROV1 ovarian
  GI50: 242 nM
  TGI: 1030 nM
NCI-H522 lung
  GI50: 666 nM
  TGI: 1530 nM
SNB-19 CNS
  GI50: 1090 nM
  TGI: 2850 nM
SK-MEL-5 melanoma
  GI50: 511 nM
  TGI: 1220 nM
SR leukemia
  GI50: 206 nM
  TGI: 1100 nM
DU-145 prostate
  GI50: 339 nM
  TGI: 929 nM
SF-268 CNS
  GI50: 520 nM
  TGI: 1430 nM
EKVX NSCLC
  GI50: 348 nM
  TGI: 1020 nM
OVCAR-3 ovarian
  GI50: 460 nM
  TGI: 1260 nM
COLO 205 colon
  GI50: 428 nM
  TGI: 1150 nM
HT29 colon
  GI50: 282 nM
  TGI: 1000 nM
BT-549 breast
  GI50: 930 nM
  TGI: 1690 nM
RXF 393 renal
  GI50: 379 nM
  TGI: 1060 nM
786-0 renal
  GI50: 451 nM
  TGI: 1100 nM
HL-60(TB) leukemia
  GI50: 222 nM
  TGI: 724 nM
ACHN renal
  GI50: 482 nM
  TGI: 1210 nM
HCC-2998 colon
  GI50: 516 nM
  TGI: 1610 nM
RPMI-8226 leukemia
  GI50: 515 nM
  TGI: 2180 nM
NCI-H460 lung
  GI50: 369 nM
  TGI: 1070 nM
NCI-H23 lung
  GI50: 340 nM
  TGI: 1230 nM
HCT-15 colon
  GI50: 207 nM
  TGI: 909 nM
KM12 colon
  GI50: 5 nM
  TGI: 739 nM
UO-31 renal
  GI50: 571 nM
  TGI: 1200 nM
OVCAR-8 ovarian
  GI50: 705 nM
  TGI: 1560 nM
HS 578T breast
  GI50: 944 nM
  TGI: 3200 nM
OVCAR-5 ovarian
  GI50: 680 nM
  TGI: 1890 nM
SW-620 colon
  GI50: 275 nM
  TGI: 1200 nM
SF-539 CNS
  GI50: 438 nM
  TGI: 1100 nM
UACC-257 melanoma
  GI50: 282 nM
  TGI: 963 nM
HCT-116 colon
  GI50: 164 nM
  TGI: 606 nM
SK-MEL-28 melanoma
  GI50: 670 nM
  TGI: 1520 nM
A498 renal
  GI50: 1370 nM
  TGI: 2540 nM
PC-3 prostate
  GI50: 457 nM
  TGI: 1970 nM
HOP-62 NSCLC
  GI50: 729 nM
  TGI: 1640 nM
TK-10 renal
  GI50: 749 nM
  TGI: 1460 nM
K-562 leukemia
  GI50: 5 nM
  TGI: 818 nM
SK-OV-3 ovarian
  GI50: 1510 nM
  TGI: 3780 nM
UACC-62 melanoma
  GI50: 630 nM
  TGI: 1330 nM
MDA-MB-231 breast
  GI50: 181 nM
  TGI: 841 nM
